{"source": "patent US20250082760A1", "about": "(priority 2020, published 2025)", "key": {"[1]": {"tested_on": "lipopolysaccharide-induced depression mouse model", "assay": "lipopolysaccharide-induced depression mouse model (open field, forced swimming test, body weight)", "type": "in vivo, ICR mice", "method": "Positive drug: fluoxetine hydrochloride capsule (specification 20 mg), take the content in a mortar, add 40 ml of 0.5% CMC-Na solution while grinding, to a suspended state, set EP tube for use; test drug (compound 5): dissolve into 5, 10, and 20 mg/ml solutions in distilled water, respectively, and put them in EP tubes for later use; modeling drug (LPS): take a frozen lipopolysaccharide PBS solution (1.2 mg: 1.2 ml), and after thawing Use a pipette to take 1 ml into the EP tube, replace with a new pipette tip and pipette 9 ml of normal saline into the EP tube, shake well for use.\nExcept for the first group (blank control group), other groups of animals were intraperitoneally injected with LPS 2 h before the last administration on the 7th day to the mice in the model group, the positive drug group, and the low, middle and high dose groups of the test drug.\nThe first group was the blank control group, which was given 0.5% CMC-Na 0.2 ml/20 g by gavage; the second group was the model group, which was given 0.5% CMC-Na by gavage; the third group was the positive drug group, which was given by gavage Flunarizine hydrochloride (sibilin) 1 mg/kg; the fourth group was the low-dose group of the test drug, which was given 100 mg/kg of compound 5 by gavage; the fifth group was the medium-dose group of the test drug, which was given 200 mg/kg by gavage. kg of compound 5; the sixth group was the test drug high-dose group, and 400 mg/kg of compound 5 was administered by gavage. The drug was administered for one week, and the second to sixth groups were intraperitoneally injected with 1 mg/kg (0.2 ml/20 g) of LPS on the seventh day to establish a model.\nOn the 7th day, before the last administration and modeling, the effect of the drug on the spontaneous activity of the mice should be investigated, and it is excluded that the drug increases the spontaneous activity of the mice and interferes with the immobility time in the forced swimming experiment. The total migration distance of each mouse in the open field (50×50×50 cm) within 5 min was calculated using the open field experimental instrument and related computer software. Before the data collection, each mouse was given 5 min to familiarize with the open field environment, after each mouse was tested, its excrement was removed and the odor was eliminated with an alcohol spray bottle.\nBecause the air temperature is low, it is appropriate to control the water temperature by adding hot water to the cylinder.\nIn the spontaneous activity, the behavioral index selects the total migration distance of mice in the open field within 5 minutes,\nby tracking the movement trajectory of mice through monitoring devices, and using computer software, the total distance of movement can be directly obtained; in the FST experiment, the mice were placed in a into a transparent cylinder filled with warm water (about 25° C.) for 6 minutes, the mice will experience struggling, swimming and floating behaviors, the time when the mice stop struggling to float on the water surface is identified as a state of despair caused by depression, by using monitoring equipment and computer software to statistically analyze the state of mice after 4 minutes, the total “Immobility time” can be directly obtained."}, "[2]": {"tested_on": "nitroglycerin-induced migraine mouse model", "assay": "nitroglycerin-induced migraine mouse model (hot plate, head scratching, body weight)", "type": "in vivo, ICR mice", "conditions": "for hind feet licking time (hot plate) / total number of head scratching times: reference model group, day 5; for hind feet licking time (hot plate): 45 min after modeling, p<0.05", "method": "48 ICR mice weigt 18-22 g, half male and half female; purchased from Qinglongshan Animal Breeding Farm, Jiangning District, Nanjing City, certificate: SCXK (Su) 2017-0001; rearing conditions: room temperature 18-20° C., same sex rearing in separate cages, 12 hours of light, regular ventilation, conventional full-price solid feed feeding, bedding changed every two days; 48 mice were randomly divided into 6 groups (blank control group, model group, positive drug group, low-dose group of test drug, medium-dose group of test drug, high-dose group of test drug), 8 animals (4♀4) in each group, marked No. 1-8 with picric acid respectively.\nSolvent: 0.5% CMC-Na aqueous solution; positive drug: flunarizine hydrochloride (sibelin) capsules (specification 5 mg), take the contents in a mortar, add 100 ml of 0.5% CMC-Na solution while grinding, placed in EP tubes for standby; Test drug (compound 5): dissolve into 5, 10, 20 mg/ml solutions with distilled water respectively, and placed in EP tubes for standby; Modeling drug (nitroglycerin): take 2 nitroglycerin tablets (specification 5 mg), crushed into powder, placed in EP tubes, added 500 μl of propylene glycol with a pipette and shaken well, standing still for 5 minutes, added 9.5 ml of normal saline, shaken well and standing still overnight, take the supernatant (containing nitroglycerin) 1 mg/ml) for use.\nExcept for the first group (blank control group), animals in other groups were subcutaneously injected with 10 mg/kg (0.2 ml/20 g) of nitroglycerin back-up solution 1 h after each administration (modeling once every other day on the 1st, 3rd, and 5th days).\nThe first group was the blank control group, which was given 0.5% CMC-Na 0.2 ml/20 g by gavage; the second group was the model group, which was given 0.5% CMC-Na by gavage; the third group was the positive drug group, which was given by gavage Flunarizine hydrochloride (sibilin) 1 mg/kg; the fourth group was the low-dose group of test drug, which was given 100 mg/kg of compound 5 by gavage; the fifth group was the medium-dose group of test drug, which was given 200 mg/kg of compound 5 by gavage; the sixth group was the high-dose group of test drug, which was given 400 mg/kg of compound 5 by gavage. Dosing every other day on days 1, 3, and 5.\nIn behavioral studies, mice scratching their heads for more than 5 times or scratching their faces with forelimbs for more than 5 times were identified as migraine-related behaviors caused by modeling, with a record of scratching their heads once; in the hot plate method, mice lifted their hind limbs and licked their hind feet as the observation indicator, record the time immediately."}}, "note": "Structures can show the parent of a compound that is named as a salt.", "data": [{"smiles": "CC(C)c1cccc(C(C)C)c1OC(=O)CC1(CN(C)C)CCCCC1", "note": "[Compound 5, 2,6-diisopropylphenyl 2-(1-((dimethylamino)methyl)cyclohexyl)acetate hydrochloride]", "values": [{"measurement": "effect on body weight of mice", "setting": "[1]; compound 5 100, 200, 400 mg/kg and positive drug, gavage for one week", "result": "no significant effect"}, {"measurement": "alleviation of depressive behavior caused by LPS", "setting": "[1]; compound 5 100, 200, 400 mg/kg and positive drug, gavage for one week, no statistical difference found", "result": "certain alleviation effect"}, {"measurement": "spontaneous activity: total migration distance in open field within 5 minutes", "setting": "[1]; reference blank group, day 7 before last administration, all dose groups, p>0.05", "result": "no significant effect"}, {"measurement": "FST immobility time", "setting": "[1]; reference model group, compound 5 100, 200, 400 mg/kg and positive drug, gavage for one week, 4 h after LPS", "result": "not significantly different (p>0.05)"}, {"measurement": "alleviation of nitroglycerin-induced migraine in mice", "setting": "[2]; by gavage on days 1, 3, 5, compound 5 100, 200, 400 mg/kg", "result": "effectively alleviate"}, {"measurement": "weight gain of mice", "setting": "[2]; mouse, in vivo", "result": "no significant effect"}, {"measurement": "hind feet licking time (hot plate)", "setting": "[2]; high dose 400 mg/kg gavage", "result": "significant difference"}, {"measurement": "total number of head scratching times", "setting": "[2]; high dose 400 mg/kg gavage", "result": "significant difference (p<0.05)"}, {"measurement": "total number of head scratching times", "setting": "[2]; low dose 100 mg/kg gavage", "result": "extremely significant (p<0.01)"}, {"measurement": "total number of head scratching times", "setting": "[2]; medium dose 200 mg/kg gavage", "result": "extremely significant (p<0.01)"}, {"measurement": "hind feet licking time (hot plate)", "setting": "[2]; middle dose 200 mg/kg gavage", "result": "significant difference"}, {"measurement": "logP", "setting": "physchem", "result": 1.37}]}]}
